Consider ten compounds from patent US4954507A, “1-tertiary-alkyl-substituted naphthyridine carboxylic acid antibacterial agents” (priority 1988, dated 1990).

Molecules are shown by their SMILES. Values after ≈ are worked out from the molar mass of the structure shown. Where two headings read alike, the source gives them in different places.

One series deals with Staphylococcus aureus. Briefly: MIC, microtitration dilution method, S. aur. In kind it is cell-based. The protocol:
(§1) The compounds of this invention display antibacterial activity when tested by the microtitration dilution method reported by Heifetz et al., Antimicr. Agents & Chemoth., 6. 124 (1974). Minimum inhibitory concentrations (MICs, in μg/ml) for but a few representative compounds according to this invention were determined by the above-mentioned method.

For a further series, the system named is Streptococcus faecalis. Briefly: MIC, microtitration dilution method, S. faecal. The format is cell-based. Here is the method: as §1
Another series concerns Streptococcus faecium. Kind of series: MIC, microtitration dilution method, S. faeci. In kind it is cell-based. The protocol:
as §1

A further series has as its system Escherichia coli. Kind of series: MIC, microtitration dilution method, E. coli. The format is cell-based. Here is the method:
as §1

Another series relates to Enterobacter cloacae. Kind of series: MIC, microtitration dilution method, E. clo. In kind it is cell-based.
The test system of the next series is Pseudomonas aeruginosa. Kind of series: MIC, microtitration dilution method, P. aer. The format is cell-based. Here is the method: as §1
Another series deals with Klebsiella pneumoniae. Kind of series: MIC, K. pneum. In kind it is cell-based. Here is the method:
as §1

For series [1] the following is noted: in words; from Tables 2, 3 and 4.
A short description of another series: physchem. Particulars: water.
The test system of another series is Klebsiella oxytoca. Briefly: MIC, microtitration dilution method, K. oxyto. The format is cell-based. Particulars: Table 2. Here is the method:
as §1

The mark [2] stands for this setting: Staphylococcus aureus, Table 3, S. aur., read-out: MIC.
[3] abbreviates: Enterococcus faecalis, Table 3, S. faecal., read-out: MIC.
Where [4] appears, read: Enterococcus faecium, Table 3, S. faeci., read-out: MIC.
[5] abbreviates: Escherichia coli, Table 3, E. coli, read-out: MIC.
Where [6] appears, read: Enterobacter cloacae, Table 3, E. clo., read-out: MIC.
The mark [7] stands for this setting: Pseudomonas aeruginosa, Table 3, P. aer., read-out: MIC.
The mark [8] stands for this setting: Table 3, K. pneum., read-out: MIC.

What is called MIC is the smallest concentration in the dilution series that meets the test's criterion for growth inhibition. As usually defined, the solubility is the dissolved amount per volume that the medium holds. Low readings indicate little dissolved substance, high ones much dissolved substance.

With `CC(C)(C)n1cc(C(=O)O)c(=O)c2cc(F)c(N3C[C@H]4C[C@@H]3CN4)nc21` [Example 30], the MIC came out at 0.06 µg/mL (≈ 0.166 µM) in the series on Staphylococcus aureus (setting [2]); 0.25 µg/mL (≈ 0.694 µM) with Streptococcus faecalis (setting [3]); 2 µg/mL (≈ 5.55 µM) in the series on Streptococcus faecium (setting [4]); 0.06 µg/mL (≈ 0.166 µM) in the series on Escherichia coli (setting [5]); 0.03 µg/mL (≈ 0.0832 µM) in the series on Enterobacter cloacae (setting [6]); 0.13 µg/mL (≈ 0.361 µM) with Pseudomonas aeruginosa (setting [7]). Besides, the MIC in the series on Klebsiella pneumoniae (setting [8]) stood at 0.06 µg/mL (≈ 0.166 µM). In addition, the “combination of anti-bacterial, toxicity, and water-solubility properties” value in series [1] is on record as “highly advantageous combination of the above mentioned properties”. Besides, the solubility in the series “physchem” turned out to be 80 µg/mL (≈ 222 µM).

As for `CC(C)(C)n1cc(C(=O)O)c(=O)c2cc(F)c(N3CC[C@H](N)C3)nc21` [Example 46, 7-[(S)-3-amino-1-pyrrolidinyl]-1-(1,1-dimethylethyl)-6-fluoro-1,4-dihydro-4-oxo-1,8-naphthyridine-3-carboxylic acid], the MIC was 0.008 µg/mL (≈ 0.023 µM) in the series on Staphylococcus aureus (Staphylococcus aureus); 0.03 µg/mL (≈ 0.0861 µM) against Streptococcus faecalis (Enterococcus faecalis); 0.25 µg/mL (≈ 0.718 µM) against Streptococcus faecium (Enterococcus faecium); 0.015 µg/mL (≈ 0.0431 µM) against Escherichia coli (Escherichia coli); 0.008 µg/mL (≈ 0.023 µM) against Enterobacter cloacae (Enterobacter cloacae); 0.06 µg/mL (≈ 0.172 µM) with Pseudomonas aeruginosa (Pseudomonas aeruginosa). Further, the lowest concentration to inhibit growth with Klebsiella pneumoniae (MIC) was 0.03 µg/mL (≈ 0.0861 µM).

Consider `CC(C)(C)n1cc(C(=O)O)c(=O)c2cc(F)c(N3CC[C@@H](N)C3)nc21` [Example 45, 7-[(R)-3-AMINO-PYRROLIDINYL]-1-(1,1-DIMETHYLETHYL)-1,4-DIHYDRO-6-FLUORO-4-OXO-1,8-NAPHTHYRIDINE-3-CARBOXYLIC ACID, METHANESULFONATE], for which the MIC is 0.15 µg/mL against Staphylococcus aureus (Staphylococcus aureus); 0.13 µg/mL in the series with Streptococcus faecalis (Enterococcus faecalis); 1 µg/mL with Streptococcus faecium (Enterococcus faecium); 0.06 µg/mL in the series with Escherichia coli (Escherichia coli); 0.06 µg/mL in the series with Enterobacter cloacae (Enterobacter cloacae); 0.25 µg/mL in the series with Pseudomonas aeruginosa (Pseudomonas aeruginosa). The MIC in the series with Klebsiella pneumoniae came out at 0.13 µg/mL.

In the case of `CC(C)(C)n1cc(C(=O)O)c(=O)c2cc(F)c(N3C[C@@H]4CC[C@H]3CN4)nc21` [Example 23, 7-(1S,4S-2,5-DIAZABICYCLO[2.2.2]OCTAN-2-YL)-1-(1,1-DIMETHYLETHYL)-1,4-DIHYDRO-6-FLUORO-4-OXO-1,8-NAPHTHYRIDINE-3-CARBOXYLIC ACID], the MIC in the series on Staphylococcus aureus (Table 2, S. aur.) stood at 30 µg/mL (≈ 80.1 µM); with Streptococcus faecalis (Table 2, S. faecal.), 500 µg/mL (≈ 1340 µM); against Streptococcus faecium (Table 2, S. faeci.), 2000 µg/mL (≈ 5340 µM); in the series on Escherichia coli (Table 2, E. coli) it was 130 µg/mL (≈ 347 µM); in the series with Klebsiella oxytoca it was 500 µg/mL (≈ 1340 µM); against Enterobacter cloacae (Table 2, E. clo.), 60 µg/mL (≈ 160 µM). For the same compound, in the series with Pseudomonas aeruginosa (Table 2, P. aer.), the MIC was 1000 µg/mL (≈ 2670 µM).

Consider `CC(C)(C)n1cc(C(=O)O)c(=O)c2cc(F)c(N3CCC(N)C3)nc21` (stereo not shown) [Example 36, 7-(3-AMINO-1-PYRROLIDINYL)-1-(1,1-DIMETHYLETHYL)-1,4-DIHYDRO-6-FLUORO-4-OXO-1,8-NAPHTHYRIDINE-3-CARBOXYLIC ACID], for which the minimal inhibitory concentration (MIC) against Staphylococcus aureus (Staphylococcus aureus) amounted to 0.015 µg/mL (≈ 0.0431 µM); in the series on Streptococcus faecalis (Enterococcus faecalis), 0.25 µg/mL (≈ 0.718 µM); against Streptococcus faecium (Enterococcus faecium) it was 1 µg/mL (≈ 2.87 µM); with Escherichia coli (Escherichia coli), 0.13 µg/mL (≈ 0.373 µM); in the series with Enterobacter cloacae (Enterobacter cloacae), 0.06 µg/mL (≈ 0.172 µM); against Pseudomonas aeruginosa (Pseudomonas aeruginosa) it was 0.25 µg/mL (≈ 0.718 µM). The same compound registered an MIC with Klebsiella pneumoniae of 0.13 µg/mL (≈ 0.373 µM).

Take `C[C@H]1CN(c2nc3c(cc2F)c(=O)c(C(=O)O)cn3C(C)(C)C)C[C@H]1N` (relative stereo) [Example 47, 7-(cis-3-amino-4-methyl-pyrrolidin-1-yl)-1-(1,1-dimethylethyl)-1,4-dihydro-6-fluoro-4-oxo-1,8-naphthyridine-3-carboxylic acid]: the MIC was 0.015 µg/mL (≈ 0.0414 µM) with Staphylococcus aureus (Staphylococcus aureus); 0.13 µg/mL (≈ 0.359 µM) with Streptococcus faecalis (Enterococcus faecalis); 1 µg/mL (≈ 2.76 µM) in the series on Streptococcus faecium (Enterococcus faecium); 0.25 µg/mL (≈ 0.69 µM) with Escherichia coli (Escherichia coli); 0.13 µg/mL (≈ 0.359 µM) against Enterobacter cloacae (Enterobacter cloacae); 0.5 µg/mL (≈ 1.38 µM) in the series with Pseudomonas aeruginosa (Pseudomonas aeruginosa). In addition, the minimal inhibitory concentration (MIC) in the series on Klebsiella pneumoniae stood at 0.03 µg/mL (≈ 0.0828 µM).

In the case of `CCn1cc(C(=O)O)c(=O)c2cc(F)c(N3CCNCC3)cc21` [Nor., 1-ethyl-6-fluoro-1,4-dihydro-7-(1-piperazinyl)-4-oxo-quinoline-3-carboxylic acid, reference compound], the MIC with Staphylococcus aureus (setting [2]) turned out to be 0.25 µg/mL (≈ 0.783 µM); in the series on Streptococcus faecalis (setting [3]) it was 2 µg/mL (≈ 6.26 µM); in the series with Streptococcus faecium (setting [4]) it was 8 µg/mL (≈ 25.1 µM); with Escherichia coli (setting [5]), 0.06 µg/mL (≈ 0.188 µM); with Enterobacter cloacae (setting [6]), 0.06 µg/mL (≈ 0.188 µM); with Pseudomonas aeruginosa (setting [7]), 0.5 µg/mL (≈ 1.57 µM). Also, the minimum inhibitory concentration (MIC) with Klebsiella pneumoniae (setting [8]) came to 0.03 µg/mL (≈ 0.0939 µM).

Regarding `O=C(O)c1cn(C2CC2)c2cc(N3CCNCC3)c(F)cc2c1=O` [Cip., 1-cyclopropyl-6-fluoro-1,4-dihydro-7-(1-piperazinyl)-4-oxo-quinoline-3-carboxylic acid, reference compound], the MIC in the series on Staphylococcus aureus (Staphylococcus aureus) is 0.13 µg/mL (≈ 0.392 µM); with Streptococcus faecium (Enterococcus faecium), 8 µg/mL (≈ 24.1 µM); in the series on Escherichia coli (setting [5]), 0.015 µg/mL (≈ 0.0453 µM); in the series with Pseudomonas aeruginosa (Pseudomonas aeruginosa), 0.13 µg/mL (≈ 0.392 µM); in the series with Klebsiella pneumoniae it was 0.03 µg/mL (≈ 0.0905 µM).

On to `CC1CN(c2nc3c(cc2F)c(=O)c(C(=O)O)cn3C(C)(C)C)CC1N` (mixture of isomers) [Example 42], for which the MIC is 0.03 µg/mL against Staphylococcus aureus (Staphylococcus aureus); 0.25 µg/mL in the series with Streptococcus faecalis (Enterococcus faecalis); 1 µg/mL in the series with Streptococcus faecium (Enterococcus faecium); 0.008 µg/mL against Escherichia coli (Escherichia coli); 0.015 µg/mL in the series with Enterobacter cloacae (Enterobacter cloacae); 0.25 µg/mL against Pseudomonas aeruginosa (Pseudomonas aeruginosa). Moreover, in the series with Klebsiella pneumoniae, the MIC was 0.06 µg/mL.

On to `CS(=O)(=O)O.C[C@@H]1CN(c2nc3c(cc2F)c(=O)c(C(=O)O)cn3C(C)(C)C)C[C@H]1N` (relative stereo) [Example 48, 7-(trans-3-amino-4-methylpyrrolidin-1-yl)-1-(1,1-dimethylethyl)-1,4-dihydro-6-fluoro-4-oxo-1,8-naphthyridine-3-carboxylic acid (methanesulfonate)], for which the minimal inhibitory concentration (MIC) in the series with Staphylococcus aureus (Staphylococcus aureus) turned out to be 0.008 µg/mL; in the series with Streptococcus faecalis (Enterococcus faecalis), 0.06 µg/mL; against Streptococcus faecium (Enterococcus faecium), 0.5 µg/mL; in the series with Escherichia coli (Escherichia coli) it was 0.015 µg/mL; against Enterobacter cloacae (Enterobacter cloacae), 0.015 µg/mL; in the series with Pseudomonas aeruginosa (Pseudomonas aeruginosa), 0.25 µg/mL. This compound also had an MIC against Klebsiella pneumoniae of 0.06 µg/mL.
